Data from patent US8927563B2, “Kinase inhibitor” (Respivert Limited, priority 2013, dated 2015).

Columns and labels:
Lck = Lck (Homo sapiens (Human), UniProt P06239); experiment: KINOMEscan dissociation constant, Lck; format: binding
Procedure: Kinase enzyme binding activities of compounds disclosed herein may be determined using a proprietary assay which measures active site-directed competition binding to an immobilized ligand (Fabian, M. A. et al., Nature Biotechnol., 2005, 23:329-336). These assays may be conducted by DiscoverX (formerly Ambit; San Diego, Calif.). The percentage inhibition produced by incubation with a test compound may be calculated relative to the non-inhibited control.

[1] = Plasma pharmacokinetics and total colon distribution after oral administration to mice; format: in vivo; details: male, C57BL/6, mouse, total colon, oral 5 mg/kg, vehicle B, read-out: Median total colon concentration
Procedure: Studies were conducted by Sai Life Sciences (Hinjewadi, Pune, India) to investigate the plasma pharmacokinetics and total colon tissue distribution of Compound I. In particular, pharmacokinetic studies were carried out in: • male C57BL/6 mice, following a single oral administration; and • male Wistar rats following a single intravenous or oral administration.

hERG = hERG (Homo sapiens (Human), UniProt Q12809); experiment: hERG inhibition, IonWorks patch clamp electrophysiology; format: cell-based; details: human, 3 μM
Procedure: (§1) Compound I was tested for inhibition of the human ether a go-go (hERG) channel using IonWorks™ patch clamp electrophysiology at Essen Bioscience (Welwyn Garden City, England).

[2] = target: human ether a go-go (hERG) channel (Homo sapiens (Human), UniProt Q12809); experiment: as above; format: cell-based
Procedure: as §1

Lck, sequence (P06239 whole entry): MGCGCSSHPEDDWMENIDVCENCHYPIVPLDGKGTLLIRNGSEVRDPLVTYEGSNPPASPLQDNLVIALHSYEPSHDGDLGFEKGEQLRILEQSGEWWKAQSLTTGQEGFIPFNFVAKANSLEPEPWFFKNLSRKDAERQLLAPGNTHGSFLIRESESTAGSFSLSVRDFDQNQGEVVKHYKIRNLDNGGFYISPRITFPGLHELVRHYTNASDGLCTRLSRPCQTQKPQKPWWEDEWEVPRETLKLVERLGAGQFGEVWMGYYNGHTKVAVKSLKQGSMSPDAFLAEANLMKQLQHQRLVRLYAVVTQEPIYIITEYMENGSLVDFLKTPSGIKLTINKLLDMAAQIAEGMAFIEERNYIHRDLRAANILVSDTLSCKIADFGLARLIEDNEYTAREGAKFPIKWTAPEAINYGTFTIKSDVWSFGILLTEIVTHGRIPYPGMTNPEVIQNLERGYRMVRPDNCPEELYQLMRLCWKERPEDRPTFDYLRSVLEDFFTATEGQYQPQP
hERG, sequence (Q12809 whole entry): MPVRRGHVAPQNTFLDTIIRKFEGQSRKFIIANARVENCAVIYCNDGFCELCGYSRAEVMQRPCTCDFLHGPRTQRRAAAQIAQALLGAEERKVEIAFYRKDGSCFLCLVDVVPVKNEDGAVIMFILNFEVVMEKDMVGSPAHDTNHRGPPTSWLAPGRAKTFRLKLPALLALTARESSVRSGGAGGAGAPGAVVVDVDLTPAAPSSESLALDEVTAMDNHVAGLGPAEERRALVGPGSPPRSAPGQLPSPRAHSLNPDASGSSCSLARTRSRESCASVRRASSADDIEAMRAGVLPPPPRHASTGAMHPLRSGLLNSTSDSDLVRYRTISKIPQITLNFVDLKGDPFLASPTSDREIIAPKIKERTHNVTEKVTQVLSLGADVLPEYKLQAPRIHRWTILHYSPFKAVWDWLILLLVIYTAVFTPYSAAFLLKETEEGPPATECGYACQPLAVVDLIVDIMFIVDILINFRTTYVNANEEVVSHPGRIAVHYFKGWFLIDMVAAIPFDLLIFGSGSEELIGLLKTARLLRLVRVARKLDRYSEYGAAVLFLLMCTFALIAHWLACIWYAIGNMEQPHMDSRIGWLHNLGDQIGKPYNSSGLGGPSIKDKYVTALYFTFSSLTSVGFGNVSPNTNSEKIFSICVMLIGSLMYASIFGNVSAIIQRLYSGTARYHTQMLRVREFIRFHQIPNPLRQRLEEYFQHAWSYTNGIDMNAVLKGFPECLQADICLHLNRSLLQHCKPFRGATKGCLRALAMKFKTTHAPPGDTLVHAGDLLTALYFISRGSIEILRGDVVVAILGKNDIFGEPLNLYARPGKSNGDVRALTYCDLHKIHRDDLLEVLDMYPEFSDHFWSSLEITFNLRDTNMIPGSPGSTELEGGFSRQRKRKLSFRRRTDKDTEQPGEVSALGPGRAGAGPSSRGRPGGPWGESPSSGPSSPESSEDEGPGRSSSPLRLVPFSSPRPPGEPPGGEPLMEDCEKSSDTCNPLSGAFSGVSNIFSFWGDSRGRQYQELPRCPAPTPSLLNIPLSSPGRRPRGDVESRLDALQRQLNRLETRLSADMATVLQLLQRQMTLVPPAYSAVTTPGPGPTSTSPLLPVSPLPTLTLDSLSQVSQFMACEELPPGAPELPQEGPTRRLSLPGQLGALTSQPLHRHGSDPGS
human ether a go-go (hERG) channel, sequence (Q12809 whole entry): as above

Structure (SMILES): C#Cc1cc(Nc2nccc(Oc3ccc(NC(=O)Nc4cc(C(C)(C)C)cc(NS(C)(=O)=O)c4OC)c4ccccc34)n2)cc(C(=O)NCCOCCOCCOC)c1 [Compound I, 3-((4-((4-(3-(5-(tert-Butyl)-2-methoxy-3-(methylsulfonamido)phenyl)ureido)naphthalen-1-yl)oxy)pyrimidin-2-yl)amino)-5-ethynyl-N-(2-(2-(2-methoxyethoxy)ethoxy)ethyl)benzamide]
- Kd (Lck): 4.1 nM
- concentration at 1 h ([1]; 1 h): 0 ng/g
- concentration at 2 h ([1]; 2 h): 10.4 ng/g
- concentration at 4 h ([1]; 4 h): 420 ng/g
- concentration at 6 h ([1]; 6 h): 3080 ng/g
- concentration at 8 h ([1]; 8 h): 1950 ng/g
- concentration at 12 h ([1]; 12 h): 126 ng/g
- concentration at 24 h ([1]; 24 h): 23 ng/g
- inhibition at 3 µM (hERG): -12 ± 4%
- IC50 [2]: > 3000 nM
